{"source": "patent US20060106102A1", "about": "“Napththalene derivatives which inhibit the cytokine or biological activity of microphage migration inhibitory factor (mif)” (priority 2002, published 2006)", "tested_on": "recombinant human macrophage migration inhibitory factor (MIF)-induced proliferation of S112 human dermal fibroblasts", "assay": "MIF-induced proliferation of S112 human dermal fibroblasts, 3H-thymidine incorporation", "format": "cell-based", "description": "The activity of each compound was studied in a bioassay utilising MIF-induced proliferation of human dermal fibroblasts. S112 human dermal fibroblasts were propagated in RPMI/10% foetal calf serum (FCS). Prior to experimentation, cells were seeded at 10^5 cells/ml in RPMI/0.1% BSA for 18 hours. At time point zero, culture medium was replaced with RPMI/10% FCS and treatments administered. Cells were treated with recombinant human macrophage migration inhibitory factor (MIF) 50 ng/ml (1.353×10^−9 M) and/or the compound at a 1 or 1000 molar ratio to the concentration of MIF. In some experiments the compound was combined with MIF at time point −30 minutes, prior to adding at time point zero. At time point 30 hours, cells were pulsed with […]. At time point 48 hours, cells were harvested using a semi-automated cell harvester. The radioactivity incorporated into DNA was determined by liquid scintillation counting, with results expressed as [^3H] thymidine incorporation. The proliferation of untreated cells was expressed as 100% and the effect of MIF and each compound expressed in relative %.\nThe activity of compound 5 was studied in a bioassay utilising MIF-induced proliferation of human dermal fibroblasts. S112 human dermal fibroblasts were propagated in RPMI/10% foetal calf serum (FCS). Prior to experimentation, cells were seeded at 10^5 cells/ml in RPMII/0.1% BSA for 18 hours. At time point zero, culture medium was replaced with RPMI/10% FCS and treatments administered. Cells were treated with recombinant human macrophage migration inhibitory factor (MIF) 50 ng/ml and/or compound 5 at a 1-1000 molar ratio to the concentration of MIF. At a time point 30 hours later, cells were pulsed with 1 μCi/well of ^3H-thymidine. At a time point 48 hours after commencement of the experiment, cells were harvested using a semi-automated cell harvester. The radioactivity incorporated into DNA was determined by liquid scintillation counting, with results expressed as [^3H] thymidine incorporation."}
{"smiles": "O=S(=O)(O)c1ccc2cc(O)c(O)cc2c1", "note": "[Compound 6, 6,7-dihydroxynaphthalene-2-sulfonic acid]", "values": [{"measurement": "effect on proliferation of S112 cells treated with recombinant human MIF (FIG. 12)", "setting": "0.013-1.3 μM, six separate experiments", "value": "marked inhibitory effect"}, {"measurement": "inhibition at 0.13 µM", "setting": "Homo sapiens, Fibroblast, concentration 0.13 μM, rhMIF 50 ng/ml, S112 cells, read-out: % inhibition of proliferation compared to vehicle plus rhMIF-treated cells", "value": 47, "unit": "%"}]}
